Columns and labels:
VEGF = assay: Retinal VEGF levels, ELISA, EIU rats; assay type: in vivo, rat; settings: for LPS-induced increase of VEGF levels in the retina: 1 mg/kg GA i.p. 24 h before LPS, FIG. 5
Experimental: (§1) Materials and Methods: Female Lewis rats received a single intraperitoneal injection of 1 mg/kg GA or vehicle (DMSO). EIU was induced 24 hours later by a footpad injection of 200 mg/kg lipopolysaccharide (LPS).
(§2) Retinal levels of VEGF, TNF-α, and leukocyte total levels of the LPS receptor CD14 were quantified with an ELISA method, whereas membranous CD14 levels were assessed with membrane precipitation and subsequent immunoblotting. For the ELISA, one day after the administration of the LPS rats were euthanized and retinal lysates were prepared on ice in RIPA lysis buffer (1% NP-40, 0.5% deoxycholate (DOC), 1% SDS, 150 mmol/L NaCl, 50 mmol/L Tris-HCl [pH 8.0]) containing sodium fluorid, […], phenylmethylsulfonylfluorid (PMSF), leupeptin and aprotinin. Protein concentration was determined by Bradford assay (Protein Assay, Bio-Rad, Hercules, Calif.). Samples containing the same amount of protein were assayed for their VEGF, TNF-α and CD14 levels with a commercially available kit (R&D systems, CA) as per the instructions of the manufacturer.

TNF-α = assay: Retinal TNF-α levels, ELISA, EIU rats; assay type: in vivo, rat; settings: for LPS-induced increase of TNF-alpha levels in the retina: 1 mg/kg GA i.p. 24 h before LPS, FIG. 6
Experimental: as §1, §2

[1] = Phase I trials in various neoplasias; cited from earlier work
[2] = attributed to instability; cited from earlier work
leukocyte adhesion [3] = assay: Quantitative endothelial cell-neutrophil adhesion assay in vitro, endotoxin-induced uveitis (EIU) rats; assay type: cell-based, rat; settings: 1 mg/kg GA i.p. 24 h before LPS; evaluated 24 h after LPS; vs DMSO vehicle
Experimental: as §1
(§3) Twenty-four hours after the administration of LPS, leukocyte adhesion was evaluated in vitro with quantitative endothelial cell-neutrophil adhesion assays and ex vivo with concanavalin A lectin staining of retinal flatmounts, as follows. After the induction of deep anesthesia in the rat, the chest cavity was opened, and a 14-gauge perfusion cannula was introduced to the left ventricle. The right atrium was opened with a 12-gauge needle to achieve outflow. With the heart providing the motive force, 250 mL/kg PBS was administered from the perfusion cannula to remove erythrocytes and non-adherent leukocytes. […] Lectin staining was followed by 1% bovine serum albumin (BSA)/PBS perfusion for 1 minute, and PBS perfusion alone for 4 minutes, to remove excess concanavalin A. The retinas were flatmounted in a water-based fluorescence anti-fading medium (Fluoromount; Southern Biotechnology, Birmingham, Ala.) and imaged by fluorescence microscopy (Axioplan, FITC filter, 40×; Carl Zeiss, Oberkochen, Germany). […] Leukocyte location was scored as being either arteriolar, venular, or capillary. The total number of adherent leukocytes per retina was counted. […]

leukocyte adhesion [4] = assay: Leukocyte adhesion ex vivo, concanavalin A lectin staining of retinal flatmounts, EIU rats; assay type: in vivo, rat; settings: 1 mg/kg GA i.p. 24 h before LPS, evaluated 24 h after LPS, FIGS. 9-11
Experimental: as §1, §3

[5] = system: myeloperoxidase (MPO) activity; assay: Leukocyte activation, myeloperoxidase (MPO) activity assay, EIU rats; assay type: in vivo, rat; settings: 1 mg/kg GA i.p. 24 h before LPS, leukocytes from rats with EIU, FIG. 7
Experimental: as §1
(§4) Leukocyte activation was quantified with a myeloperoxidase (MPO) activity assay and blood-retinal barrier breakdown was assessed by Evans Blue extravasation. Animals were anesthetized and Evans blue dye (Sigma) dissolved in normal saline (30 mg/ml) was injected through the tail vein at a dosage of 45 mg/kg body weight. After the dye had circulated for 120 minutes, the chest cavity was opened and blood samples were obtained from the left ventricle to assess the Evans blue plasma concentration. These blood samples were centrifuged at 16,000 g for 5 minutes. […] The absorbance of Evans blue was measured by spectrophotometry as described below. […] The background-subtracted absorbance was determined by measuring each sample at 620 nm (absorbance maximum for Evans blue in formamide) and 740 nm (absorbance minimum). The concentrations of dye in the extracts and the blood samples were calculated using a standard curve of Evans blue in formamide. Blood-ocular barrier breakdown was calculated using the following equation, with results being expressed in microliters of plasma per gram of retina dry weight times hours of dye circulating time. […]

blood-retinal barrier = assay: Blood-retinal barrier breakdown by Evans Blue extravasation, EIU rats; assay type: in vivo, rat; settings: 1 mg/kg GA i.p. 24 h before LPS
Experimental: as §1, §4

NF-κB = assay: Retinal NF-κB activity, modified ELISA (Trans-AM), EIU rats; assay type: in vivo, rat; settings: 1 mg/kg GA i.p. 24 h before LPS, FIG. 4
Experimental: as §1
(§5) Retinal activities of NF-κB and HIF-1α were quantified with a modified ELISA method as described in Poulaki et al., Am. J. Pathol. 165(2):457-69 (2004) and Poulaki et al., J. Clin. Invest. 109(6):805-15 (2002). NF-κB activation was analyzed using the Trans-AM NF-κB […] transcription factor assay kit (Active Motif, Carlsbad, Calif.) according to the manufacturer's instructions, as previously described (Mitsiades et al., Proc. Natl. Acad. Sci. USA, 99:14374-14379 (2002); Mitsiades et al., Blood, 99:4525-4530 (2002)). […] Transcription factor binding to the target oligonucleotide was detected by incubation with respective specific primary monoclonal antibodies, visualized by anti-IgG horseradish peroxidase conjugate and developing solution, and quantified at 450 nm with a reference wavelength of 655 nm. Background binding was calculated by adding in selected wells the respective consensus oligonucleotides in excess (20 pmol/well) as soluble competitors that prevented transcription factor binding to the probe immobilized on the plate. […]

HIF-1α = assay: Retinal HIF-1α activity, modified ELISA binding assay, EIU rats; assay type: in vivo, rat; settings: 1 mg/kg GA i.p. 24 h before LPS, FIG. 3
Experimental: as §1, §5

CD14 = assay: Leukocyte total levels of the LPS receptor CD14, EIU rats; assay type: in vivo, rat; settings: 1 mg/kg GA i.p. 24 h before LPS, FIG. 1
Experimental: as §1, §2

membrane CD14 = assay: Membranous CD14 levels in leukocytes, membrane precipitation and immunoblotting, EIU rats; assay type: in vivo, rat; settings: 1 mg/kg GA i.p. 24 h before LPS, FIG. 2
Experimental: Retinal levels of VEGF, TNF-α, and leukocyte total levels of the LPS receptor CD14 were quantified with an ELISA method, whereas membranous CD14 levels were assessed with membrane precipitation and subsequent immunoblotting. […] Protein concentration was determined by Bradford assay (Protein Assay, Bio-Rad, Hercules, Calif.). […]
Neutrophils were isolated from whole blood by density gradient centrifugation with Histopaque® 1083 cell separation media (Sigma, St Louis, Mo.) according to the manufacturer's instructions. […] The preparations contained>85% monocytes as determined by eosin and methylene blue staining (Leukostat Staining System, Fisher Scientific, Pittsburgh, Pa.). […] The samples were cleared by centrifugation (14,000 rpm, 30 min, 40° C.) and assessed for protein concentration. Biotinylated proteins, representing the cell surface proteins, were immunoprecipitated with Streptavidin-agarose for 2 hours at 40° C., electrophoresed in an SDS-PAGE and CD14 levels were detected by Western Blotting as described.

[6] = system: intercellular adhesion molecule 1 (ICAM-1); assay: Retinal ICAM-1 levels, EIU rats; assay type: in vivo, rat; settings: rats with EIU; FIG. 8
Experimental: as §1

[7] = stated for 17AAG in the description, no conditions given

In the case of C=CCNC1=C2C[C@@H](C)C[C@H](OC)[C@H](O)[C@@H](C)/C=C(\C)[C@H](OC(N)=O)[C@@H](OC)/C=C\C=C(/C)C(=O)NC(=CC1=O)C2=O [17AAG, 17-Allylamino-17-demethoxygeldanamycin], the “expression of VEGF” value (VEGF; [7]) is given as “reduces”, the “expression of TNF-α” value (TNF-α; [7]) is given as “reduces” and the pharmacokinetic profile [1] is given as “favorable pharmacokinetic profile”. The side effects [1] was “transient and manageable side effects”.
For C[C@@H]1C[C@H]2O[C@@H]2/C=C\C=C\C(=O)Cc2c(Cl)c(O)cc(O)c2C(=O)O1 [radicicol, Radicicol], the activity in animals [2] is given as “little or no activity”.
For COC1=C2C[C@@H](C)C[C@H](OC)[C@H](O)[C@@H](C)/C=C(\C)[C@H](OC(N)=O)[C@@H](OC)/C=C\C=C(/C)C(=O)NC(=CC1=O)C2=O [Geldanamycin], the “LPS-induced increase in leukocyte adhesion in vitro” value (leukocyte adhesion [3]) was “significantly suppressed”, the “LPS-induced increase in leukocyte adhesion ex vivo” value (leukocyte adhesion [4]) was “significantly suppressed” and the MPO activity [5] was “significantly suppressed”. For the same compound, the MPO activity ([5]; listed as geldanamycin) was “reduces”, the “vascular leakage (blood-retinal barrier breakdown)” value (blood-retinal barrier; FIG. 12) was “significantly suppressed” and the “vascular leakage (blood-retinal barrier breakdown)” value (blood-retinal barrier; FIG. 12, listed as geldanamycin) was “decreases”. The “LPS-induced increase of NF-κB activity in the retina” value (NF-κB) was “significantly suppressed”, the “LPS-induced increase of NF-κB activity in the retina” value (NF-κB; listed as geldanamycin) was “decreases” and the “LPS-induced increase of HIF-1α activity in the retina” value (HIF-1α) was “significantly suppressed”. For the same compound, the “LPS-induced increase of HIF-1α activity in the retina” value (HIF-1α; listed as geldanamycin) was “decreases”, the “LPS-induced increase of VEGF levels in the retina” value (VEGF) was “significantly suppressed” and the “LPS-induced increase of VEGF levels in the retina” value (VEGF; listed as geldanamycin) was “decreases”. For the same compound, the “LPS-induced increase of TNF-alpha levels in the retina” value (TNF-α) was “significantly suppressed”, the “LPS-induced increase of TNF-alpha levels in the retina” value (TNF-α; listed as geldanamycin) was “decreases” and the “LPS-induced increase in total CD14 levels in the leukocytes” value (CD14) was “does not affect”. For the same compound, the “LPS-induced increase in total CD14 levels in the leukocytes” value (CD14; listed as GA) was “did not reduce”, the “membrane CD14 levels in leukocytes” value (membrane CD14) was “decreases” and the “membrane CD14 levels in leukocytes” value (membrane CD14; listed as GA) was “significantly decreased”. The “LPS-induced upregulation of retinal ICAM-1 levels” value [6] was “decreases”.
